pIC50: −log10 of the molar value. Counter-ions that a name gives are not always drawn.
Legend:
A549 = experiment: Cytotoxicity against human A549 cells assessed as cell growth inhibition measured after 48 hrs by MTT assay; type: functional, cell-based; details: A549, 48 h
MCF7 = experiment: Cytotoxicity against human MCF7 cells assessed as cell growth inhibition measured after 48 hrs by MTT assay; type: functional, cell-based; details: MCF7, 48 h
HepG2 = experiment: Cytotoxicity against human HepG2 cells assessed as cell growth inhibition measured after 48 hrs by MTT assay; type: functional, cell-based; details: HepG2, 48 h
Acetylcholinesterase = Acetylcholinesterase (Electrophorus electricus, UniProt O42275); experiment: Inhibition of electric eel AChE using acetylthiocholine iodide as substrate preincubated for 20 mins followed by substrate addition measured for 30 mins by Ellman's method
Chain of Acetylcholinesterase (O42275 whole entry): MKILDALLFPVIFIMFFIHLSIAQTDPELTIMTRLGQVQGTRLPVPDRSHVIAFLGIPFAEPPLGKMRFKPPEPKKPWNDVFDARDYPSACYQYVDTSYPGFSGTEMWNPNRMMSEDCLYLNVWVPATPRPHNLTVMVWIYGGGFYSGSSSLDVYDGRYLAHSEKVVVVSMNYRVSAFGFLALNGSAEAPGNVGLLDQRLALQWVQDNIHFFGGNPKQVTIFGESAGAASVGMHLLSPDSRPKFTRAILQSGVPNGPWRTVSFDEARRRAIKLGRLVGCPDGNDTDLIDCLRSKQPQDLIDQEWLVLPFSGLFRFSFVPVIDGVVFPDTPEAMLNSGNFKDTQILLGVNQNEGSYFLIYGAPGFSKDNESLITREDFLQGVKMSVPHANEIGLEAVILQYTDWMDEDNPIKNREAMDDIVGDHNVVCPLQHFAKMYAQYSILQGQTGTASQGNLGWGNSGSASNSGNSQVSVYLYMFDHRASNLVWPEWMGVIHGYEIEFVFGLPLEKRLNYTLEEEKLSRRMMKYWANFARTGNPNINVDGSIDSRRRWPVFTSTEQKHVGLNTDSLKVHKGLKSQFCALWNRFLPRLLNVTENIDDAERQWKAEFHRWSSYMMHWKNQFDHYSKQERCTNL

SMILES	pIC50 (A549)	pIC50 (MCF7)	pIC50 (HepG2)	pIC50 (Acetylcholinesterase)
C=CC1C(C[C@@H]2NCCc3c2[nH]c2ccccc32)C(C(=O)O)=CO[C@H]1O[C@@H]1O[C@H](CO)[C@@H](O)[C@H](O)[C@H]1O (some centres undefined) [STRICTOSIDINIC ACID]	< 4.10	< 4.10	< 4.10	
C=C[C@H]1[C@H](O[C@@H]2O[C@H](CO)[C@@H](O)[C@H](O)[C@H]2O[C@@H]2O[C@H](CO)[C@@H](O)[C@H](O)[C@H]2O)OC=C2C(=O)N3CC[C@]4(C(=O)Nc5cc(O)ccc54)[C@H]3C[C@H]21	< 4.10	< 4.10	< 4.10	
C=C[C@H]1[C@H](O[C@@H]2O[C@H](CO)[C@@H](O)[C@H](O)[C@H]2O)OC=C2C(=O)N3CCc4c([nH]c5ccccc45)[C@H]3C[C@H]21	< 4.10	< 4.10	< 4.10	
C=C[C@H]1[C@H](O[C@@H]2O[C@H](CO)[C@@H](O)[C@H](O)[C@H]2O[C@@H]2O[C@H](CO)[C@@H](O)[C@H](O)[C@H]2O)OC=C2C(=O)N3CCc4c([nH]c5ccccc45)[C@H]3C[C@H]21	< 4.10	< 4.10	< 4.10	
COC(=O)C1=CO[C@@H](O[C@@H]2O[C@H](CO)[C@@H](O)[C@H](O)[C@H]2O)[C@@H]2[C@H](O)CN3CCc4c([nH]c5ccccc45)[C@@H]3C[C@H]12	< 4.10	< 4.10	< 4.10	
COC(=O)C1=CO[C@@H](O[C@@H]2O[C@H](CO)[C@@H](O)[C@H](O)[C@H]2O)[C@H]2[C@@H]1C[C@H]1c3[nH]c4ccccc4c3CCN1[C@H]2CO	< 4.10	< 4.10	< 4.10	
COC(=O)C1=CO[C@@H](O[C@@H]2O[C@H](CO)[C@@H](O)[C@H](O)[C@H]2O)[C@H]2[C@@H]1C[C@@H]1N(CC[C@]13C(=O)Nc1ccccc13)C[C@@H]2O	< 4.10	< 4.10	< 4.10	
C=C[C@H]1[C@H](O[C@@H]2O[C@H](CO)[C@@H](O)[C@H](O)[C@H]2O[C@@H]2O[C@H](CO)[C@@H](O)[C@H](O)[C@H]2O)OC=C2C(=O)N3Cc4c([nH]c5cc(O)ccc5c4=O)[C@H]3C[C@H]21	< 4.10	< 4.10	< 4.10	
C=C[C@H]1[C@H](O[C@@H]2O[C@H](CO)[C@@H](O)[C@H](O)[C@H]2O)OC=C2C(=O)N3CC[C@@]4(C(=O)Nc5cc(O)ccc54)[C@H]3C[C@H]21	< 4.10	< 4.10	< 4.10	
C=C[C@H]1[C@H](O[C@@H]2O[C@H](CO)[C@@H](O)[C@H](O)[C@H]2O)OC=C2C(=O)N3Cc4c([nH]c5cc(O)ccc5c4=O)[C@H]3C[C@H]21	< 4.10	< 4.10	< 4.10	
C=C[C@H]1[C@H](O[C@@H]2O[C@H](CO)[C@@H](O)[C@H](O)[C@H]2O)OC=C2C(=O)N3CCc4c([nH]c5cc(O)ccc45)[C@H]3C[C@H]21	< 4.10	< 4.10	< 4.10	
C=C[C@H]1[C@H](O[C@@H]2O[C@H](CO)[C@@H](O)[C@H](O)[C@H]2O[C@@H]2O[C@H](CO)[C@@H](O)[C@H](O)[C@H]2O)OC=C2C(=O)N3CC[C@@]4(C(=O)Nc5cc(O)ccc54)[C@H]3C[C@H]21	< 4.10	< 4.10	< 4.10	
C=C[C@H]1[C@H](O[C@@H]2O[C@H](CO)[C@@H](O)[C@H](O)[C@H]2O)OC=C2C(=O)N3[C@H](C(=O)O)Cc4c([nH]c5ccccc45)[C@@H]3C[C@H]21	< 4.10	< 4.10	< 4.10	
C=C[C@H]1[C@H](O[C@@H]2O[C@H](CO)[C@@H](O)[C@H](O)[C@H]2O)OC=C(C(=O)OC)[C@H]1C[C@@H]1N[C@H](C(=O)OC)Cc2c1[nH]c1ccccc21	< 4.10	< 4.10	< 4.10	
C=C[C@H]1[C@H](O[C@@H]2O[C@H](CO)[C@@H](O)[C@H](O)[C@H]2O[C@@H]2O[C@H](CO)[C@@H](O)[C@H](O)[C@H]2O)OC=C2C(=O)N3CCc4c([nH]c5cc(O[C@@H]6O[C@H](CO)[C@@H](O)[C@H](O)[C@H]6O)ccc45)[C@H]3C[C@H]21	< 4.10	< 4.10	< 4.10	
COC(=O)C1=CO[C@@H](O[C@@H]2O[C@H](CO)[C@@H](O)[C@H](O)[C@H]2O)[C@H]2[C@@H]1C[C@@H]1c3[nH]c4ccccc4c3CCN1[C@H]2CO	< 4.10	< 4.10	< 4.10	
C=C[C@H]1CN2CC[C@]3(C(=O)Nc4ccccc43)[C@@H]2C[C@@H]1/C(=C/OC)C(=O)O[C@@H]1O[C@H](CO)[C@@H](O)[C@H](O)[C@H]1O	< 4.10	< 4.10	< 4.10	
C=C[C@H]1[C@H](O[C@@H]2O[C@H](CO)[C@@H](O)[C@H](O)[C@H]2O)OC=C2C(=O)N3CCc4c([nH]c5ccccc45)[C@@H]3C[C@H]21	< 4.10	< 4.10	< 4.10	
C=C[C@H]1[C@H](O[C@@H]2O[C@H](CO)[C@@H](O)[C@H](O)[C@H]2O)OC=C2C(=O)N3CCc4c([nH]c5ccc(O)cc45)[C@@H]3C[C@H]21	< 4.10	< 4.10	< 4.10	
C=C[C@H]1CN2CC[C@@]3(C(=O)Nc4ccccc43)[C@@H]2C[C@@H]1/C(=C/OC)C(=O)O[C@@H]1O[C@H](CO)[C@@H](O)[C@H](O)[C@H]1O	< 4.10	< 4.10	< 4.10	
C=C[C@H]1[C@H](O[C@@H]2O[C@H](CO)[C@@H](O)[C@H](O)[C@H]2O)OC=C(C(=O)OC)[C@H]1Cc1nc(C(=O)OC)cc2c1[nH]c1ccccc12	< 4.10	< 4.10	< 4.10	
O=C1C2=CO[C@@H](O[C@@H]3O[C@H](CO)[C@@H](O)[C@H](O)[C@H]3O[C@@H]3O[C@H](CO)[C@@H](O)[C@H](O)[C@H]3O)[C@H]([C@H](O)CO)[C@@H]2C[C@@H]2c3[nH]c4cc(O[C@@H]5O[C@H](CO)[C@@H](O)[C@H](O)[C@H]5O)ccc4c3CCN12	< 4.10	< 4.10	< 4.10	
C=C[C@H]1COC(=O)C2=CN3CCc4c([nH]c5cccc(O[C@@H]6O[C@H](CO)[C@@H](O)[C@H](O)[C@H]6O)c45)[C@@H]3C[C@H]21	< 4.10	< 4.10	< 4.10	4.98
COc1cccc2c1C(=O)c1c(O)c3c(c(O)c1C2=O)C[C@@](O)(C(=O)CO)C[C@@H]3O[C@H]1C[C@H](N)[C@H](O)[C@H](C)O1 [DOXORUBICIN HYDROCHLORIDE]	> 6.00	> 6.00	> 6.00	
C=C[C@H]1[C@H](O[C@@H]2O[C@H](CO)[C@@H](O)[C@H](O)[C@H]2O)OC=C(C(=O)OC)[C@H]1C[C@@H]1N[C@H](C(=O)O)Cc2c1[nH]c1ccccc21	< 4.10	< 4.10	< 4.10	
COC(=O)C1=CO[C@@H](O[C@@H]2O[C@H](CO)[C@@H](O)[C@H](O)[C@H]2O)[C@@H]2[C@@H]3CN4CCc5c([nH]c6ccccc56)[C@]4(C[C@H]12)O3	< 4.10	< 4.10	< 4.10	

Reference: ChEMBL document CHEMBL4334530, “Glucoconjugated Monoterpene Indole Alkaloids from Uncaria rhynchophylla” (J Nat Prod, 2019)
